Test results from patent US4110328A, “Bis-carbamylguanidinoazaalkane antimicrobial compounds” (Cooper Laboratories, Inc., priority 1976, dated 1978).
In brackets after ≈: the same amount, converted by molar mass. Entries after “also recorded” stand apart in the source; their conditions may differ. Structures can show the parent of a compound that is named as a salt.

Experiments:
[1] = system: S. Mutans, Strain OMZ-176E; assay: Serial dilution minimum inhibitory concentration (MIC) test, S. mutans; type: cell-based; conditions: Streptococcus mutans, half strength brain-heart infusion broth, 37° C, 36 hours
Description: A quantitative serial dilution test may also be performed by the following procedure. A 20 mg/ml solution of the compound to be tested is prepared in a standard brain-heart infusion broth medium which has been diluted with water to one-half standard strength. Serial dilutions are prepared by adding 1 ml of the solution to a test tube containing 9 ml of medium. Five milliliters of the resulting solution are then added to another test tube containing 5 ml of the medium. The resulting solution is then again diluted by the same procedure. Ordinarily one tenfold dilution and four twofold dilutions are made. The procedure can be continued if more dilute solutions are required. Each of the series of tubes containing solutions of the compounds to be assayed is inoculated with two drops of a heavy culture of the chosen microorganisms in the brain-heart infusion broth. The tubes are incubated at 37° C for 36 hours and the most dilute solution showing no microbial growth is noted. The concentration of this solution is reported as the minimal inhibitory concentration (MIC). The minimum inhibitory concentration of a number of a number of compounds of this invention with respect to the microorganism S. Mutans, Strain OMZ-176E were determined by the procedure described above. Chlorhexidine diacetate, a commercially successful antimicrobial, was used as a control.

[2] = system: S. aureus; assay: Serial dilution MIC test, S. aureus; type: cell-based; conditions: Staphylococcus aureus, read-out: MINIMUM […]. S. aureus; trypticase soy broth, 37° C, 36 hours; read-out: MINIMUM INHIBITORY CONCN. S. aureus
Description: (§1) A quantitative serial dilution test may also be performed by the following procedure.
(§2) A 20 mg/ml solution of the compound to be tested is prepared in a standard brain-heart infusion broth medium which has been diluted with water to one-half standard strength.
(§3) Serial dilutions are prepared by adding 1 ml of the solution to a test tube containing 9 ml of medium. Five milliliters of the resulting solution are then added to another test tube containing 5 ml of the medium. The resulting solution is then again diluted by the same procedure. Ordinarily one tenfold dilution and four twofold dilutions are made. The procedure can be continued if more dilute solutions are required. Each of the series of tubes containing solutions of the compounds to be assayed is inoculated with two drops of a heavy culture of the chosen microorganisms in the brain-heart infusion broth. The tubes are incubated at 37° C for 36 hours and the most dilute solution showing no microbial growth is noted. The concentration of this solution is reported as the minimal inhibitory concentration (MIC).
(§4) A number of compounds of this invention were tested for in vitro antimicrobial activity against several pathogenic microorganisms using the above described procedure except that trypticase soy broth was used in place of half strength brain-heart infusion as the medium.

[3] = system: Ps. aeruginosa; assay: Serial dilution MIC test, Ps. aeruginosa; type: cell-based; conditions: Pseudomonas aeruginosa; trypticase soy broth, 37° C, 36 hours; read-out: MINIMUM INHIBITORY CONCN. Ps. aeruginosa
Description: as §1, §2, §3, §4

[4] = system: E. coli; assay: Serial dilution MIC test, E. coli; type: cell-based; conditions: Escherichia coli, read-out: MINIMUM […]. E. coli; trypticase soy broth, 37° C, 36 hours; read-out: MINIMUM INHIBITORY CONCN. E. coli
Description: as §1, §2, §3, §4

[5] = system: C. albicans; assay: Serial dilution MIC test, C. albicans; type: cell-based; conditions: Candida albicans; trypticase soy broth, 37° C, 36 hours; read-out: MINIMUM INHIBITORY CONCN. C. albicans
Description: as §1, §2, §3, §4

[6] = system: A. niger; assay: Serial dilution MIC test, A. niger; type: cell-based; conditions: Aspergillus niger; trypticase soy broth, 37° C, 36 hours; read-out: MINIMUM INHIBITORY CONCN. A. niger
Description: as §1, §2, §3, §4

[7] = Staining of extracted human incisors in vitro; conditions: ten days; for discoloration of teeth: 0.2% and 1% solutions, 10 minutes daily, saliva at 37° C
Description: The staining properties of the compound of Example II were compared with those of chlorhexidine by the following procedure. Test solutions were prepared containing 0.2% and 1% of chlorhexidine and 0.2% and 1% of the compound of Example II as the trimethanesulfonate salt. Extracted human incisors, which were used without cleaning or other treatment which would remove the dental pellicle, were suspended from wires. Daily, each tooth was immersed for 10 minutes in one of the test solutions, then suspended in whole stimulated saliva and incubated at 37° C for 24 hours.

[8] = cited from earlier work; for taste perception of foodstuffs: for several hours; for clinical antiplaque effectiveness: in vivo; for local irritation: oral mucosa and tongue; for staining of teeth, tongue, gums, oral mucosa: prolonged use

Row | Structure (SMILES) | MIC [1] [µg/mL] | MIC [2] [µg/mL] | MIC [3] [µg/mL] | MIC [4] [µg/mL] | MIC [5] [µg/mL] | MIC [6] [µg/mL] | further results
1 | CN(CCCNC(=N)NC(=O)Nc1ccc(Cl)cc1)CCCNC(=N)NC(=O)Nc1ccc(Cl)cc1 [1,7-bis(4-chlorophenylcarbamylguanidine)-4-methyl-4-azaheptane] | 0.625 (≈ 1.17 µM) |  |  |  |  |  | 
2 | CCCCC(CC)CNC(=O)NC(=N)NCCCN1CCN(CCCNC(=N)NC(=O)NCC(CC)CCCC)CC1 (stereo not shown) [1,4-bis[3-(2-ethylhexylcarbamylguanidino)propyl]piperazine dihydrochloride] | 5 |  |  |  |  |  | 
3 | CC(C)(C)CC(C)(C)NC(=O)NC(=N)NCCCN1CCN(CCCNC(=N)NC(=O)NC(C)(C)CC(C)(C)C)CC1 [1,4-bis[3-(1,1,3,3-tetramethylbutylcarbamylguanidino)propyl]piperazine dihydrochloride] | 1.25 |  |  |  |  |  | 
4 | N=C(NCCCCCCNC(=N)NC(=N)Nc1ccc(Cl)cc1)NC(=N)Nc1ccc(Cl)cc1 [chlorhexidine diacetate, reference compound] | 0.156 to 0.312 |  |  |  |  |  | 
5 | Cl.Cl.N=C(NCCCN1CCN(CCCNC(=N)NC(=O)NCC2CCCCC2)CC1)NC(=O)NCC1CCCCC1 [1,4-bis[(3-cyclohexylmethylcarbamylguanidino)propyl]piperazine dihydrochloride] | 1.25 |  |  |  |  |  | 
6 | [H]/N=C(\N/C(=N/[H])NCCCCCCNC(=N)NC(=N)Nc1ccc(Cl)cc1)Nc1ccc(Cl)cc1 [chlorhexidine, 1,6-bis-(p-chlorophenylbiguanidino)hexane] |  | 0.39 (≈ 0.772 µM) | 50 (≈ 98.9 µM) | 1.56 (≈ 3.09 µM) | 3.12 (≈ 6.17 µM) | 12.5 (≈ 24.7 µM) | discoloration of teeth [7]: greyish-brown discoloration; dependence of amount of discoloration on concentration ([7]; 0.2% versus 1%): independent of the concentration; taste perception of foodstuffs [8]: alter taste perception of foodstuffs for several hours; clinical antiplaque effectiveness [8]: clinically effective antiplaque agents; local irritation [8]: produce local irritation of the oral mucosa and tongue; staining of teeth, tongue, gums, oral mucosa [8]: produce stains of various colors on the teeth, tongue, gums, oral mucosa; also recorded: staining of the teeth, tongue, and gums
7 | N=C(NCCCN1CCN(CCCNC(=N)NC(=O)NCC2CCCCCC2)CC1)NC(=O)NCC1CCCCCC1 [1,4-bis[3-(cycloheptylmethylcarbamylguanidino)propyl]piperazine dimethanesulfonic acid salt] |  | 0.78 | 12.5 | 12.5 | 0.78 | 50 | 
8 | N=C(NCCN1CCN(CCNC(=N)NC(=O)NC23CC4CC(CC(C4)C2)C3)CC1)NC(=O)NC12CC3CC(CC(C3)C1)C2 [1,4-bis[2-((1-adamantyl)carbamylguanidino)ethyl]piperazine dimethanesulfonic acid salt] |  | 0.39 | 6.25 | 12.5 | 0.78 | 50 | 
9 | N=C(NCCCN1CCN(CCCNC(=N)NC(=O)Nc2ccc(Cl)cc2)CC1)NC(=O)Nc1ccc(Cl)cc1 [Example II] | 0.156 to 0.312 (≈ 0.264 to 0.527 µM) |  |  |  |  |  | discoloration of teeth [7]: no signs of discoloration
10 | N=C(NCCCN1CCN(CCCNC(=N)NC(=O)NCCc2ccc(Cl)cc2)CC1)NC(=O)NCCc1ccc(Cl)cc1 [1,4-bis[3-(2-(4-chlorophenyl)ethylcarbamylguanidino)propyl]piperazine dihydrochloride] | 1.25 |  |  |  |  |  | 
11 | CCCCCCCCNC(=O)NC(=N)NCCCN1CCN(CCCNC(=N)NC(=O)NCCCCCCCC)CC1 [1,4-bis[3-(n-octylcarbamylguanidino)propyl]piperazine dihydrochloride] | 2.5 |  |  |  |  |  | 
12 | CCCCC(CC)CNC(=N)NC(=N)NCCCCCCNC(=N)NC(=N)NCC(CC)CCCC (stereo not shown) [alexidine, 1,6-bis-(2-ethylhexylbiguanidino)hexane] |  |  |  |  |  |  | taste perception of foodstuffs [8]: alter taste perception of foodstuffs for several hours; clinical antiplaque effectiveness [8]: clinically effective antiplaque agents; local irritation [8]: produce local irritation of the oral mucosa and tongue; staining of teeth, tongue, gums, oral mucosa [8]: produce stains of various colors on the teeth, tongue, gums, oral mucosa
13 | N=C(NCCCN1CCN(CCCNC(=N)NC(=O)NC23CC4CC(CC(C4)C2)C3)CC1)NC(=O)NC12CC3CC(CC(C3)C1)C2 [1,4-bis[3-((1-adamantyl)carbamylguanidino)propyl]piperazine dimethanesulfonic acid salt] |  | 6.25 | 50 | 25 | 12.5 | 12.5 | 
14 | CCCCCC(C)NC(=O)NC(=N)NCCCN1CCN(CCCNC(=N)NC(=O)NC(C)CCCCC)CC1 (stereo not shown) [1,4-bis[3-(1-methylhexyl)carbamylguanidino)propyl]piperazine dihydrochloride] |  | 1.56 | 25 | 12.5 | 6.25 | 25 | 
15 | N=C(NCCCN1CCN(CCCNC(=N)NC(=O)NCC2CCCCC2)CC1)NC(=O)NCC1CCCCC1 [1,4-bis[3-(cyclohexylmethylcarbamylguanidino)propyl]piperazine dimethanesulfonic acid salt] |  | 0.78 | 100 | 6.25 | 6.25 | 12.5 | 
16 | N=C(NCCCN1CCN(CCCNC(=N)NC(=O)NC2CCCCC2)CC1)NC(=O)NC1CCCCC1 [1,4-bis[3-(cyclohexylcarbamylguanidino)propyl]piperazine dimethanesulfonic acid salt] |  | 50 | 100 | 100 | 50 | 100 | 
17 | CN(CCNC(=N)NC(=O)Nc1ccc(Cl)cc1)CCN(C)CCNC(=N)NC(=O)Nc1ccc(Cl)cc1 [1,8-bis(4-chlorophenylcarbamylguanidino)-3,6-dimethyl-3,6-diazaoctane] | 1.25 (≈ 2.21 µM) |  |  |  |  |  | 
